Entries after “also recorded” stand apart in the source; their conditions may differ. Read-outs that look alike come from different tables or passages of the source.
How the values were obtained:
human CB1 receptor [1] = molecular target: T1, human CB1 receptor (Homo sapiens, UniProt P21554); type: cell-based
T1 construct: HA (hemagglutinin); expressed in transfected cells; host or cells: HEK 293 FlpIn cells with GIRK4 expression, stably transfected (pcDNA5/FRT + pOG44)

HEK 293 wild‐type cells = assay: FSK-stimulated cAMP accumulation in HEK 293 wild-type cells (not containing CB1 receptors); type: cell-based, human; conditions: 10 µmol L^−1, HEK 293 wild-type cells
CB1 [2] = system: CB1; set-up: method as in PMID 29408093; conditions: HEK cells transiently expressing CB1; cited from earlier work
CB1 [3] = system: CB1; set-up: method as in PMID 30925348, PMID 26795398, PMID 29042214, PMID 28874764, PMID 25769232; conditions: mice; cited from earlier work
human CB1 receptor [4] = molecular target: T1, human CB1 receptor; type: cell-based; remark: listed apart in the source
[5] = read-out: G i (‐PTX) EC50 (converted)
[6] = read-out: G s (+PTX) EC50 (converted)
[7] = read-out: Gs (+PTX) EC50 (converted)

T1 sequence (P21554 whole entry): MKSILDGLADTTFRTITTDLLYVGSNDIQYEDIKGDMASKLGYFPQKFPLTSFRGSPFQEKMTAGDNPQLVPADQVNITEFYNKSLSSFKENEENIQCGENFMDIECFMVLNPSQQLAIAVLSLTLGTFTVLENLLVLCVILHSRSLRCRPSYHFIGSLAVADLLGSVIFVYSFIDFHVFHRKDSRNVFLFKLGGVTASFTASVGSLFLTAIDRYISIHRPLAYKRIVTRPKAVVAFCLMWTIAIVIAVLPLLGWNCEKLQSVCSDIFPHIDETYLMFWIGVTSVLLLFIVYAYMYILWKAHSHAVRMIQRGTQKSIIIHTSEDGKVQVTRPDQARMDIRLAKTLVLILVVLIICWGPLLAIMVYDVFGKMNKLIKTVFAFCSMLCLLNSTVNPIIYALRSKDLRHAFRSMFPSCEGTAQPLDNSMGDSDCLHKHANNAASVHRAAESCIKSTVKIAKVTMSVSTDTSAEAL

Row | Compound | effect of SR141716A pretreatment on SCRA-mediated stimulation of FSK-induced cAMP response (human CB1 receptor [1]) | induced seizures, mechanism (CB1 [3]) | G i (‐PTX) E max (% FSK) (human CB1 receptor [4]) | G i (‐PTX) pEC50 (human CB1 receptor [4]) | G i (−PTX) selectivity (human CB1 receptor [4]) | EC50 (human CB1 receptor [4]; [5]) | G s (+PTX) E max (% FSK) (human CB1 receptor [1]) | G s (+PTX) pEC50 (human CB1 receptor [1]) | EC50 (human CB1 receptor [1]; [6]) | increase in cAMP levels above that produced by FSK alone (human CB1 receptor [1]) | also measured
1 | CC(C)[C@H](NC(=O)c1nn(CC2CCCCC2)c2ccccc12)C(N)=O | only partially inhibited; also recorded: not significantly different | – | – | – | – | – | – | – | – | – | increase in cAMP levels above that of FSK alone (human CB1 receptor [1]): 86 ± 21%; increase in FSK‐stimulated cAMP accumulation (HEK 293 wild‐type cells): 29 ± 10%; effect on cAMP levels in absence and presence of forskolin (CB1 [2]): elevation in cAMP levels
2 | CCCCC/C=C\C/C=C\C/C=C\C/C=C\CCCC(=O)OC(CO)CO [2‐AG, 2‐arachidonoyl glycerol, reference compound] | – | – | – | – | – | – | – | – | – | – | effect on cAMP relative to CP55940 (human CB1 receptor [1]): approximately twice that of CP55940
3 | CC(C)[C@H](NC(=O)c1nn(CCCCCF)c2ccccc12)C(N)=O [5F‐AB‐PINACA] | – | CB1‐mediated | – | – | – | – | – | – | – | – | –
4 | COC(=O)[C@@H](NC(=O)c1cn(CCCCCF)c2ccccc12)C(C)(C)C [5F‐MDMB‐PICA] | inhibited | – | 60 ± 4 % FSK | 9.2 ± 0.2 (0.62) | 137 | 0.00062 µM | 126 ± 5 % FSK | 7.1 ± 0.4 (85) | 0.085 µM | – | effect of SR141716A pretreatment on SCRA-induced inhibition of cAMP signaling (human CB1 receptor [4]): blocked
5 | CC(C)[C@H](NC(=O)c1nn(Cc2ccc(F)cc2)c2ccccc12)C(N)=O [AB‐FUBINACA] | inhibited | – | 61 ± 2 % FSK | 9.0 ± 0.2 (0.96) | – | 0.00096 µM | 144 ± 12 % FSK | – | – | more than 30% | Gi (-PTX) selectivity (human CB1 receptor [4]): 348; effect of SR141716A pretreatment on SCRA-induced inhibition of cAMP signaling (human CB1 receptor [4]): blocked; EC50 (human CB1 receptor [4]; read-out: Gi (-PTX) EC50 (converted)): 0.0011 µM; effect on cAMP relative to CP55940 (human CB1 receptor [1]): up to 2.5 times; EC50 (human CB1 receptor [1]; [7]): 0.383 µM
6 | CCCCCn1nc(C(=O)N[C@H](C(N)=O)C(C)C)c2ccccc21 [AB‐PINACA] | – | – | – | – | – | – | – | – | – | more than 30% | –
7 | O=C(c1cccc2ccccc12)c1cn(CCCCCF)c2ccccc12 [AM‐2201] | – | CB1‐mediated | – | – | – | – | – | – | – | – | –
8 | CCCCCCC(C)(C)c1ccc([C@@H]2C[C@H](O)CC[C@H]2CCCO)c(O)c1 [CP55940, reference compound] | – | – | – | – | – | – | – | – | – | 19% | –
9 | CC(C)(NC(=O)c1nn(CCCCC#N)c2ccccc12)c1ccccc1 [CUMYL‐4CN‐BINACA, reference compound] | – | CB1‐mediated | – | – | – | – | – | – | – | – | –
10 | CCCCCn1cc(C(=O)c2cccc3ccccc23)c2ccccc21 [JWH‐018] | inhibited | CB1‐mediated | – | 7.8 ± 0.2 (16) | 18 | 0.016 µM | 114 ± 4 % FSK | 6.5 ± 0.7 (288) | 0.288 µM | – | Gi (-PTX) selectivity (human CB1 receptor [4]): 14; effect of SR141716A pretreatment on SCRA-induced inhibition of cAMP signaling (human CB1 receptor [4]): blocked; Gs (+PTX) pEC50 (human CB1 receptor [1]): 6.7 ± 0.7 (221); activation of Gαs pathway (increase over FSK alone) (human CB1 receptor [1]): 14%; EC50 (human CB1 receptor [1]; [7]): 0.221 µM
11 | CCCCCn1cc(C(=O)Oc2cccc3cccnc23)c2ccccc21 [PB‐22] | – | – | 64 ± 3 % FSK | 8.6 ± 0.2 (2.5) | 28 | 0.0025 µM | 130 ± 3 % FSK | 7.2 ± 0.5 (69) | 0.069 µM | more than 30% | –
12 | CC1(C)C(C(=O)c2cn(CCCCCF)c3ccccc23)C1(C)C [XLR‐11] | – | – | 63 ± 2 % FSK | 7.2 ± 0.2 (63) | 75 | 0.063 µM | 124 ± 5 % FSK | 5.3 ± 0.8 (4720) | 4.72 µM | – | Gi (-PTX) selectivity (human CB1 receptor [4]): 103; Gs (+PTX) pEC50 (human CB1 receptor [1]): 5.2 ± 0.8 (6490); EC50 (human CB1 receptor [1]; [7]): 6.49 µM

— article PMC7043210, “Differential activation of G protein‐mediated signaling by synthetic cannabinoid receptor agonists” (Pharmacology Research & Perspectives, 2020)
